From US20150259331A1, “PROTOZOAN PARASITE GROWTH INHIBITORS” (Northeastern University, priority 2014, published 2015) come the findings set out here.

pEC50: −log10 of the molar value. Like-named read-outs stand apart in the source and are kept apart here.

One data set relates to L. major promastigote. Nature of the data set: L. major promastigote assay. The format is cell-based. To be noted: Leishmania major.
Data set [1] can be described thus: Mouse oral pharmacokinetic study. It counts as in vivo, male BALB/c mice. On the procedure:
Test system. Healthy male BALB/c mice (8-12 weeks old) weighing between 20 to 35 g were procured from In vivo biosciences, Bengaluru, India. Maximum three mice were housed in each polycarbonate cage. […] The temperature and humidity were recorded by auto-controlled data logger system. Animals were provided laboratory rodent diet ([…], Bengaluru) ad libitum and were provided fresh water ad libitum (reverse osmosis water treated with UV light). Study Design. […] The dosing volume administered for was 10 mL/kg. Formulation Preparation. Formulation of NEU-617 was given orally. The strength of oral suspension formulation was 4 mg/mL. The weighed quantity (39.22 mg) of compound NEU-617 for p.o. dosing was added in a mortar. […] Sample Collection. […] The blood samples (approximately 60 μL) were collected from the retro-orbital plexus into labeled tubes, containing K2EDTA solution, as an anticoagulant. Plasma was harvested from the blood by centrifugation at 4000 rpm for 10 min at 4±2° C. and stored below -70° C. until bioanalysis. […] Following collection, the brain samples were washed by dipping in 20 mL of ice-cold phosphate buffer saline (pH 7.4), dried gently on a filter paper, weighed and placed in polypropylene tubes. Further brain samples were homogenized using ice-cold phosphate buffer saline (pH 7.4) and the total homogenate volume was thrice the brain weight. The brain samples were stored at -70° C. until bioanalysis. Data analysis. The Non-Compartmental-Analysis module in WinNonlin® (Version 5.2) was used to assess the pharmacokinetic parameters. Peak plasma concentrations (Cmax) and time for the peak plasma concentrations (Tmax) were the observed values. The areas under the concentration time curve (AUClast and AUCinf) were calculated by linear trapezoidal rule.

The test system of a further data set is P. falciparum W2. Briefly: P. falciparum W2 assay. To be noted: Plasmodium falciparum; strain W2; read-out: P. falciparum W2 (EC50). It counts as cell-based.
The subject of a further data set is T. cruzi. Briefly: T. cruzi growth inhibition. It counts as cell-based, Trypanosoma cruzi. To be noted: Trypanosoma cruzi.
The subject of another data set is P. falciparum C235. Nature of the data set: P. falciparum C235 assay. It counts as cell-based. To be noted: Plasmodium falciparum; strain C235; read-out: P. falciparum C235 (EC50).
In data set [2] the test system is T. brucei brucei Lister 427. Briefly: Trypanosome replication assay. It counts as cell-based, Trypanosoma brucei brucei. To be noted: Trypanosoma brucei.
Setting [3] is: male, BALB/c, mouse, brain, 40 mg/kg PO single dose.
[4] abbreviates: male, BALB/c, mouse, plasma, 40 mg/kg PO single dose.

For `Fc1cccc(COc2ccc(Nc3ncnc4ccc(-c5cccc(N6CCOCC6)c5)cc34)cc2Cl)c1` [Compound 23a, N-(3-Chloro-4-((3-fluorobenzyl)oxy)phenyl)-6-(3-morpholinophenyl)quinazolin-4-amine], the pEC50 (usually the negative decadic logarithm of the EC50, by convention in mol/L) is 5.52 in the data set on L. major promastigote; 6.17 with P. falciparum W2; 5.74 with T. cruzi; 6.43 in the data set with P. falciparum C235; 7.38 in data set [2] (48 h, concentration giving 50% inhibition of growth of T brucei brucei Lister 427 cells, 48 h, values ±7%, read-out: Tbb EC50). The compound further yielded a CNS fraction in data set [1] (40 mg/kg single oral dose) of 5%. In data set [1] (40 mg/kg single oral dose), the “time plasma levels were in excess of the EC50” value was above 12 h. For the same compound, the AUC(0-t) (usually exposure summed from dosing to a finite time, without extrapolation to infinity) in data set [1] (setting [3]) worked out at 92.5 ng·h/mL; in data set [1] (setting [4]) it was 1950 ng·h/mL. In addition, the Cmax – broadly, the peak of the concentration-time curve – in data set [1] (setting [3]) came to 26 ng/mL; in data set [1] (setting [4]), 153 ng/mL. Further, the Tmax (commonly the time from dosing to the highest level) in data set [1] (setting [3]) is 0.5 h; in data set [1] (setting [4]), 2 h. For the same compound, the area under the curve AUC(0-inf) (usually total exposure, with the tail of the curve extrapolated) in data set [1] (setting [4]) was determined as 2000 ng·h/mL. Besides, in data set [2] (read-out: EC50 expressed as ng/mL, T. brucei EC50 converted, FIG. 1 legend), the EC50 worked out at 22.7 ng/mL.
